Data taken from article PMC12383718, “C-Terminal Modification Contributes the Antibacterial Activity of a Cecropin-like Region of Heteroscorpine-1 from Scorpion Venom” (Biology, 2025).
≈ marks a conversion by molar mass, not a printed value. Ends that are not written are not given here.

Legend:
[1] = tested on: Staphylococcus aureus ATCC 25923; assay: microbe, parasite or virus in culture; format: cell-based; conditions: S. aureus ATCC 25923, 37 °C, 16–18 h, ND = no detection at the highest tested concentration
Description: (§1) The following microorganisms were used to determine the minimum inhibitory concentration (MIC) and minimum bactericidal concentration (MBC) of the peptides: Gram-positive Staphylococcus aureus ATCC 25923, Gram-negative Escherichia coli ATCC 25922, Klebsiella pneumoniae ATCC 27736, and Pseudomonas aeruginosa ATCC 27853. The assays were conducted according to the protocol described by Erviana et al., with some modifications.
(§2) The antibacterial activity of the modified CeHS-1 analogs was evaluated using MIC and MBC assays. The MIC (minimum inhibitory concentration) is defined as the lowest concentration of antimicrobial peptides (AMPs) or other agents that inhibits visible bacterial growth. In contrast, the MBC (minimum bactericidal concentration) is defined as the lowest concentration of AMPs that kills 99.9% of the bacterial inoculum under the specified conditions. The determination of MIC values was performed using a 96-well plate assay. Initially, peptides were serially diluted in the wells. Then, 10 µL of bacterial inoculum, previously adjusted to a cell density of 2.2 × 10^6 CFU/mL, was added to each well. The plates were incubated at 37 °C for 16–18 h. The MIC was determined by measuring the optical density at 600 nm (OD600), with the lowest concentration of AMPs that inhibited visible bacterial growth defined as the MIC. […] The lowest concentration of AMPs at which no bacterial colonies were observed was defined as the MBC [47].

[2] = tested on: Pseudomonas aeruginosa ATCC 27853; assay: microbe, parasite or virus in culture; format: cell-based; conditions: P. aeruginosa ATCC 27853, 37 °C, 16–18 h, ND = no detection at the highest tested concentration
Description: as §1, §2

[3] = tested on: Escherichia coli ATCC 25922; assay: microbe, parasite or virus in culture; format: cell-based; conditions: E. coli ATCC 25922, 37 °C, 16–18 h, ND = no detection at the highest tested concentration
Description: as §1, §2

[4] = tested on: Klebsiella pneumoniae ATCC 27736; assay: microbe, parasite or virus in culture; format: cell-based; conditions: K. pneumoniae ATCC 27736, 37 °C, 16–18 h, ND = no detection at the highest tested concentration
Description: as §1, §2

[5] = tested on: human red blood cells (hRBCs); assay: Hemolytic activity assay; format: cell-based; conditions: 500 µg/mL peptide (highest concentration tested); 4% hRBC suspension in PBS pH 7.4, 37 °C, 1 h, absorbance 415 nm; relative to 0.1% Triton X-100
Description: The hemolytic activity of the peptides was assessed using human red blood cells (hRBCs), following the method described by Erviana et al., with some modifications. Briefly, a 4% hRBC suspension was prepared in 1X phosphate-buffered saline (PBS, pH 7.4). Subsequently, 100 µL of the hRBC suspension was mixed with 100 µL of peptide samples at various concentrations (500, 200, 100, 50, and 25 µg/mL) in microcentrifuge tubes. The mixture was incubated at 37 °C for 1 h, followed by centrifugation at 100× g for 5 min. The supernatant was collected and transferred to a 96-well plate for absorbance measurement at 415 nm. The hemolytic activity of each peptide was subsequently calculated using the following equation: Hemolysis (%)=S/P×100
In the above equation, S represents the absorbance at 415 nm of the sample or negative control, while P represents the absorbance at 415 nm of the positive control. The peptide solvent was used as the negative control, whereas 0.1% Triton X-100 served as the positive control.

[6] = tested on: S. aureus cytoplasmic membrane; format: cell-based, Staphylococcus aureus; conditions: S. aureus 10^6 CFU/mL in PBS, 0.25, 0.5 and 1 MIC, 1 h, 37 °C; flow cytometry; at least triplicate
Description: A bacterial suspension of S. aureus was cultured in LB medium to the exponential phase (OD600 = 0.5). […] Following incubation, 42 µL of SYTOX™ Green Ready Flow™ Reagent (Invitrogen, Thermo Fisher Scientific, Carlsbad, CA, USA) was added to the peptide-treated cells and incubated for an additional 10 min at 25 °C. Fluorescence emission was measured using flow cytometry. The cell population was gated based on forward scatter and side scatter parameters. Cells with compromised membranes were identified by their fluorescence (excitation at 488 nm and detection at 530 nm with a 30 nm bandpass filter). The mean fluorescence intensity and the percentage of fluorescent cells were determined by analyzing 100,000 cells per sample. Each experiment was performed in at least triplicate. Flow cytometry measurements were conducted using a BD FACSCanto II system (BD Biosciences, Wokingham, UK).

[7] = 25 µL from wells without visible growth spread on nutrient agar
[8] = 96-well plate serial dilution, 10 µL inoculum of 2.2 × 10^6 CFU/mL, OD600

Row | Compound | S. aureus MBC [1, 7] [µg/mL] | S. aureus MIC [1, 8] [µg/mL] | P. aeruginosa MBC [2, 7] [µg/mL] | P. aeruginosa MIC [2, 8] [µg/mL] | E. coli MBC [3, 7] [µg/mL] | E. coli MIC [3, 8] [µg/mL] | K. pneumoniae MBC [4, 7] [µg/mL] | K. pneumoniae MIC [4, 8] [µg/mL] | Hemolytic activity [5] [%] | Cytoplasmic membrane permeabilization (SYTOX Green fluorescence intensity) [6] | MBC ([1]; Staphylococcus aureus, ATCC25923, 25 µL from wells without visible growth spread on nutrient agar) [µg/mL] | MIC ([1]; Staphylococcus aureus, ATCC25923, 96-well plate serial dilution, 10 µL inoculum of 2.2 × 10^6 CFU/mL, OD600) [µg/mL] | MBC ([2]; Pseudomonas aeruginosa, ATCC27853, 25 µL from wells without visible growth spread on nutrient agar) [µg/mL] | MIC ([2]; Pseudomonas aeruginosa, ATCC27853, 96-well plate serial dilution, 10 µL inoculum of 2.2 × 10^6 CFU/mL, OD600) [µg/mL] | MBC ([3]; Escherichia coli, ATCC25922, 25 µL from wells without visible growth spread on nutrient agar) [µg/mL] | MIC ([3]; Escherichia coli, ATCC25922, 96-well plate serial dilution, 10 µL inoculum of 2.2 × 10^6 CFU/mL, OD600) [µg/mL] | MBC ([4]; Klebsiella pneumoniae, ATCC27736, 25 µL from wells without visible growth spread on nutrient agar) [µg/mL] | MIC ([4]; Klebsiella pneumoniae, ATCC27736, 96-well plate serial dilution, 10 µL inoculum of 2.2 × 10^6 CFU/mL, OD600) [µg/mL]
1 | KKILGGMAKAVRWW-NH2 [compound 9] | 128 | 64 | 128 | 64 | 32 | 8 | 128 | 128 | 2.39 ± 0.22 | – | – | – | – | – | – | – | – | –
2 | KIQKKIIKKIGRWW-NH2 [compound 6] | 64 | 32 | 32 | 16 | 8 | 8 | 256 | 256 | 2.35 ± 0.20 | – | – | – | – | – | – | – | – | –
3 | GWINIIKIQKKRWW-NH2 [compound 3] | – | – | – | – | 256 | 128 | – | – | 7.74 ± 1.18 | – | – | – | – | – | – | – | – | –
4 | VHKLAKGIFKRWW-NH2 [compound 12] | 32 | 32 | 64 | 32 | 16 | 4 | 256 | 256 | 1.67 ± 0.17 | – | – | – | – | – | – | – | – | –
5 | NC[C@H]1O[C@H](O[C@H]2[C@H](O)[C@@H](O[C@H]3O[C@H](CO)[C@@H](O)[C@H](N)[C@H]3O)[C@H](N)C[C@@H]2N)[C@H](O)[C@@H](O)[C@@H]1O [kanamycin] | – | – | – | – | – | – | – | – | – | low fluorescence intensity | – | – | – | – | – | – | – | –
6 | CC1(C)S[C@@H]2[C@H](NC(=O)[C@H](N)c3ccccc3)C(=O)N2[C@H]1C(=O)O [Ampicillin, reference compound] | – | – | – | – | – | – | – | – | – | – | 8 (≈ 22.9 µM) | 8 (≈ 22.9 µM) | 256 (≈ 733 µM) | 128 (≈ 366 µM) | 32 (≈ 91.6 µM) | 4 (≈ 11.4 µM) | > 256 | > 256
